The record followed here is patent publication US5874235A, “Screening assays for cancer chemopreventative agents” (The Johns Hopkins University, priority 1997, dated 1999).

Numbered stars: 1 amine (or outer) side, 2 acyl side, 3 side chain; on linkers, the order of the positions; unused ones are H or OH. Bridge positions count the residues as written; N and C are the ends. Square brackets hold non-standard residues; d marks the D form. Peptide text beside a SMILES is read from it. I, II: the chains in the order shown. Actinocin(9to1) = Cc1c2oc3c(C)ccc(C(=O)[*:1])c3nc-2c(C(=O)[*:2])c(N)c1=O; NMeV = CN[C@H](C(=O)O)C(C)C; Sar = CNCC(=O)O

Format in all cases: cell-based, human
Data set [1] relates to HCT116 cells. As to conditions: for inhibition of SUS-induced apoptosis: co-treatment with SUS 125 μM (CHX 10 μM; PGE2 10 μM). Here is the method:
FIGS. 1A, 1B and 1C NSAID induce apoptosis in human colorectal cancer cells. In FIG. […] Cells were collected at the indicated times, fixed and stained with Hoechst 33258 (23). The cells were counted and those with fragmented nuclei were scored as apoptotic. In FIG. 1B, HCT116 and SW480 cells were treated with SUS or INDO for 60 hours, harvested and stained as described above. Cells treated with SUS or INDO show the hallmarks of apoptosis.
(§1) This death appeared to be apoptotic, as it was accompanied by nuclear condensation and fragmentation (FIG. 1B) and exposure of phosphatidylserine groups on the cell surface, two hallmarks of apoptosis (11, 12).

Data set [2] has as its system SW480 cells. As to conditions: for inhibition of SUS-induced apoptosis: co-treatment with SUS 200 μM (CHX 10 μM; PGE2 10 μM); for effect on apoptosis: 200 μM fatty acid, 48 hours.
The test system of data set [3] is SW480 cells. The experiment in a line: Ceramide levels, E. coli diacylglycerol (DAG) kinase assay. As to conditions: for effect on ceramide levels: 48 hours. Here is the method:
(§2) Cells were harvested and ceramide was quantified. The first lane of each panel corresponds to a ceramide standard (ceramide type III, Sigma). […] HCT116 and SW480 cells were treated with SUS or INDO as indicated. Ceramide levels were determined as described above. […] Control cells were treated with DMSO vehicle only. Cells were harvested at the indicated times following treatment and ceramide levels were determined as described above. The data are plotted as the mean of at least two experiments with the error bars corresponding to the standard deviation.
(§3) Ceramide levels were measured using the Escherichia coli diacylglycerol (DAG) kinase assay as previously described (30) with the following modifications. After the initial lipid extraction, phases were broken by adding 2 ml chloroform and 2 ml 1M NaCl and lipids were washed with 1M NaCl prior to drying under nitrogen (32, 33). After solubilization, samples were sonicated for 15 seconds. The DAG reaction was performed for 30 minutes at 25° C. in a 100 μl reaction volume with 3.5 μg DAG kinase (Calbiochem) and […] γ^32 P-ATP (Dupont NEN, 6000 Ci/mmol). After extraction of the labeled lipids, the lower chloroform phase was washed with 1% HCl prior to drying under nitrogen. The solvent mixture for thin layer chromatography was chloroform:acetone:methanol:acetic acid:water (10:4:3:2:1). Samples were quantitated using a Phosphorimager (Molecular Dynamics).

The test system of data set [4] is SW480 cells. As to conditions: indomethacin treatment. Here is the method:
FIGS. 1A, 1B and 1C NSAID induce apoptosis in human colorectal cancer cells. In FIG. 1A, HCT116 and SW480 cells were treated with indomethacin (INDO) (300 μM) or SUS (125 μM for HCT116 and 200 μM for SW480 cells). Cells were collected at the indicated times, fixed and stained with Hoechst 33258 (23). The cells were counted and those with fragmented nuclei were scored as apoptotic. In FIG. 1B, HCT116 and SW480 cells were treated with SUS or INDO for 60 hours, harvested and stained as described above. Cells treated with SUS or INDO show the hallmarks of apoptosis.
as §1

Data set [5] concerns HCT116 cells. Briefly: Ceramide levels, E. coli diacylglycerol (DAG) kinase assay. As to conditions: indomethacin treatment. Here is the method: as §2, §3
The test system of data set [6] is HCT116 cells. Briefly: Arachidonic acid levels, release of 3H-AA into the media. Here is the method: (§4) FIGS. 4A, 4B, 4C, 4D, 4E and 4F. The role of arachidonic acid in NSAID-mediated apoptosis. […] HCT116 and SW480 cells were treated with the indicated concentrations of SUS or INDO. Arachidonic acid (AA) levels were determined by measuring release of ^3 H-AA into the media as previously described (18). Data are indicated as the mean of three replicates with the error bars corresponding to the standard deviation. In addition, the nature of the released radiolabeled material was evaluated by thin layer chromatography as previously described (28). […] HCT116 and SW480 cells were incubated with ^3 H-choline chloride (0.5 mCi ml^-1, 80 Ci mmol^-1, New England Nuclear) for 48 hours. After labeling, cells were washed with HBSS (Gibco) and treated with SUS or INDO for the indicated times. Sphingomyelin measurements were performed using the bacterial sphingomyelinase method as previously described (18). Sphingomyelin levels at each time point are plotted as a percentage of that in untreated control cells. For each point, the mean of at least two independent experiments is presented with the error bars corresponding to the standard deviations. […] SW480 cells were treated with 200 μM arachidonic acid (AA), SUS (SUS) or behenic acid as a control fatty acid (FA) as indicated. […] SW480 cells were treated with suboptimal doses (100 μM) of arachidonic acid (AA), SUS (SUS), or both (AA+SUS) as indicated. After 48 hours of treatment, apoptosis and ceramide increases were assessed as described for FIGS. 1 and 3, respectively. Ceramide increases (left axis) were expressed as fold increases relative to untreated cells. Apoptosis (right axis) was expressed as percent apoptotic cells minus percent apoptotic cells in untreated cells (5.6%+/-2.4). Data are indicated as the mean of duplicates with the error bars corresponding to the standard deviation.
(§5) Arachidonic acid is known to stimulate neutral sphingomyelinase (18), which catalyzes the conversion of sphingomyelin to ceramide. We therefore considered the possibility that inhibition of COX activity might lead to increases in arachidonic acid, the substrate for COX. To test this hypothesis, we first determined whether SUS stimulated arachidonic acid accumulation. In both SW480 and HCT 116 cells, apoptosis-inducing doses of SUS increased arachidonic acid by 2 to 3 fold at 24 hours and by approximately 5 fold at 48 hours (FIGS. 4A and 4B). The arachidonic acid increase following SUS treatment was as great as that following treatment with mellitin, a known activator of phospholipase A2. Arachidonic acid levels in HCT116 cells increased 3.5 fold one hour after treatment with 1 μM mellitin. Likewise, arachidonic acid levels increased 2.9 fold in SW480 cells one hour after mellitin treatment. Arachidonic acid (AA) levels were determined by measuring release of ^3 H-AA into the media as previously described (18). The nature of released radiolabeled material was evaluated by thin layer chromatography analysis as previously described (28).

Data set [7] deals with SW480 cells. The experiment in a line: cells. Particulars: for increase in arachidonic acid: sw480 cells. Here is the method:
as §4, §5

The test system of data set [8] is HCT116 cells. Briefly: Sphingomyelin levels, bacterial sphingomyelinase method. As to conditions: indomethacin treatment. Here is the method:
as §4
(§6) To test whether the increased ceramide was associated with evidence of augmented sphingomyelinase activity, we measured total sphingomyelin levels after SUS treatment. […] We also measured neutral sphingomyelinase activity in lysates from the treated cells and no differences were found. Neutral sphingomyelinase activity was assayed as described (18). After cell lysis, protein concentrations were determined using the Bradford method (Bio-Rad) and […] cellular protein was used in each assay. Neutral sphingomyelinase activity was determined by measuring the rate of hydrolysis of ^14 C-labelled sphingomyelin (Amersham). SW480 and HCT116 cell lines were treated with SUS (50, 200, and 600 μM) for 6 to 24 hours.

The subject of data set [9] is SW480 cells. The description is as above. Particulars: indomethacin treatment. Here is the method: as §4, §6

Turning to `Cc1c2oc3c(C)ccc(C(=O)N[C@@H]4C(=O)N[C@H](C(C)C)C(=O)N5CCC[C@H]5C(=O)N(C)CC(=O)N(C)[C@@H](C(C)C)C(=O)O[C@@H]4C)c3nc-2c(C(=O)N[C@@H]2C(=O)N[C@H](C(C)C)C(=O)N3CCC[C@H]3C(=O)N(C)CC(=O)N(C)[C@@H](C(C)C)C(=O)O[C@@H]2C)c(N)c1=O` [actinomycin D] (I: T[dV]P[Sar][NMeV] / II: T[dV]P[Sar][NMeV]; ester I:1-I:C, II:1-II:C; linker I:N-II:N via Actinocin(9to1)), the “inhibition of SUS-induced apoptosis” value with HCT116 cells [1] and with SW480 cells [2] was “completely inhibit apoptosis” each time.

In the case of `CCCCC/C=C\C/C=C\C/C=C\C/C=C\CCCC(=O)O` [arachidonic acid], the “effect on ceramide levels” value in the data set on SW480 cells [3] (200 μM fatty acid) was “a potent inducer of ceramide and apoptosis”; in the data set with SW480 cells [3] (suboptimal doses, 100 μM each, separately or together), “little effect on ceramide levels”. Besides, in the data set with SW480 cells [2], the effect on apoptosis entry was “a potent inducer of ceramide and apoptosis”.

Consider `CCCCCCCCCCCCCCCCCCCCCC(=O)O` [behenic acid], for which the “effect on ceramide levels” value in the data set with SW480 cells [3] (200 μM fatty acid) was “virtually no effect on ceramide levels and apoptosis”. Besides, in the data set with SW480 cells [2], the effect on apoptosis result is “virtually no effect on ceramide levels and apoptosis”.

Take `C[C@@H]1C[C@@H]([C@H](O)CC2CC(=O)NC(=O)C2)C(=O)[C@@H](C)C1` [cycloheximide]: the “inhibition of SUS-induced apoptosis” value in the data set with HCT116 cells [1] and in the data set with SW480 cells [2] was “completely inhibit apoptosis” throughout. In the data set with SW480 cells [2] (higher concentrations of SUS), the “inhibition of SW480 cell death” value is reported as “could not inhibit”.

In the case of `COc1ccc2c(c1)c(CC(=O)O)c(C)n2C(=O)c1ccc(Cl)cc1` [indomethacin], the “induction of apoptosis compared with SUS” value with HCT116 cells [1] (indomethacin treatment) and in the data set on SW480 cells [4] was “to similar degrees as SUS” throughout. Besides, the “cells induced to undergo apoptosis” value in the data set with SW480 cells [4] (cycloheximide sensitive) was 94%. The “increase of ceramide concentration compared with SUS” value in the data set on HCT116 cells [5] and in the data set with SW480 cells [3] (indomethacin treatment) was “to similar degrees as SUS” throughout. Further, in the data set on SW480 cells [3] (indomethacin treatment), the “increase in ceramide levels” value was determined as 6 fold. The “increase of arachidonic acid concentration compared with SUS” value with HCT116 cells [6] (indomethacin treatment) and in the data set on SW480 cells [7] (indomethacin treatment) was “to similar degrees as SUS” each time. Moreover, in the data set with SW480 cells [7], the “increase in arachidonic acid” value is given as 3-4 fold. In addition, the “activation of sphingomyelin hydrolysis compared with SUS” value in the data set on HCT116 cells [8] and in the data set on SW480 cells [9] was “to similar degrees as SUS” in each case.

On to `CCCCC[C@H](O)/C=C/[C@H]1[C@H](O)CC(=O)[C@@H]1C/C=C\CCCC(=O)O` [prostaglandin E2], for which the “inhibition of SUS-induced apoptosis” value in the data set on HCT116 cells [1] and in the data set with SW480 cells [2] was “No inhibition of apoptosis was observed” throughout.

On to ceramide, for which the induction of apoptosis is reported as greater than 90% in the data set on HCT116 cells [1] (human, hct116 cells, 16 h, 100 µM) and greater than 90% with SW480 cells [2] (human, sw480 cells, 16 h, 100 µM). Also, the “increase in arachidonic acid” value is on record as 1.5 fold with HCT116 cells [6] (hct116 cells, 16 h, 100 µM) and 1.9 fold with SW480 cells [7] (16 h, 100 µM).

As to mellitin, the “increase in arachidonic acid levels” value was determined as 3.5 fold in the data set with HCT116 cells [6] (one hour after 1 μM mellitin) and 2.9 fold in the data set with SW480 cells [7] (one hour after mellitin treatment, 60 min).
